In general, AUC(0-t) refers to the area under the concentration-time curve up to a stated or last time point. A high value points to more exposure. As a reminder, the half-life is the time in which the quantity being followed falls by half. What is called bioavailability is the share of a dose that reaches the circulation, judged against a reference dose that is usually intravenous. High values mean good availability, low ones poor availability. One may read the Cmax as the highest concentration seen after dosing. By Tmax is commonly meant the time at which the peak concentration occurs.

The structures appear in SMILES notation.

This is an account of results in patent US9957257B2, “Amide compounds as 5-HT4 receptor agonists” (SUVEN LIFE SCIENCES LIMITED, priority 2015, dated 2018).

The nature of series [1]: Rodent pharmacokinetic study. The series is classed as in vivo, Male wistar rats. The conditions noted are these: male, Wistar, plasma, rat. The procedure: Male wistar rats (225±25 grams) were used as experimental animals. Three to five animals were housed in each cage. Two days prior to dosing day, male wistar rats (225-250 grams) were anesthetized with isoflurane for surgical placement of jugular vein catheter. Animals were fasted overnight before oral dosing (p.o) and food pellets were allowed 2 hours post dosing, whereas during intravenous dosing food and water were provided as ad libitum. Three rats were dosed with test compounds (3 mg/kg) orally and intravenously (1 mg/kg).
At each time point blood was collected through jugular vein and immediately replenish with an equivalent volume of normal saline from freely moving rats. Collected blood was transferred into a labeled eppendr off containing 10 μL of heparin as anticoagulant. Typically blood samples were collected as following time points: Pre dose, 0.08 (only i.v.), 0.25, 0.5, 1, 2, 4, 6, 8, and 24 hours post dose-(n=3). Blood was centrifuged at 4000 rpm for 10 minutes. Plasma was prepared and stored frozen at −20° C. until analysis. The concentrations of the test compounds were quantified in plasma by qualified LC-MS/MS method using suitable extraction technique. The test compounds were quantified in the calibration range around 2-2000 ng/mL in plasma. Study samples were analyzed using calibration samples in the batch and quality control samples spread across the batch.
Pharmacokinetic parameters Cmax, Tmax, AUCt, T1/2 and Bioavailability were calculated by non-compartmental model using standard non-compartmental model by using WinNonLin 5.0.1 or Phoenix WinNonlin 6.2 version Software package.

In series [2] the test system is sAPPα. Briefly: Estimation of mice brain cortical sAPPα levels (ELISA). The series is classed as in vivo, Male C57BL/6J mice. The conditions noted are these: 1 mg/kg, s.c., 60 minutes post treatment. The procedure: 3. The supernatant was discarded and to the precipitate, 4 times volume (0.8 mL/200 mg tissues) of TBS was added.
4. From the above centrifuged mixture the supernatant was discarded and 10 times volume of 6M Guanidine-HCl in 50 mM Tris buffer pH: 7.6 (500 μL/50 mg tissues) was added.
5. […] From this 5 μL of supernatant solution was taken and diluted with 155 μL of EIA buffer (dilution factor 32).
The entire procedure was followed as described in the ELISA kit manual (Mouse/Rat sAPPα ELISA, Catalog Number: JP27415, Innovation Beyond Limits International, Hamburg, Germany).
Statistical analyses were performed using the Graph Pad Prism (Version 4).

For series [3], the system named is acetylcholine. Put plainly: Modulation of acetylcholine from the ventral hippocampus (microdialysis). The series is classed as in vivo, male Wistar rats. The conditions noted are these: 1.0 mg/kg, p.o. The text has this: Male Wistar rats (240-300 grams) were stereotaxically implanted with a microdialysis guide cannula in ventral hippocampus (AP: −5.2 mm, ML: +5.0 mm, DV: −3.8 mm). Co-ordinates were taken according to Paxinos and Watson (2004) with reference points taken from bregma and vertical from the skull. The rats were allowed to recover individually for four to five days in a round bottom Plexiglas bowl with free access to feed and water.
One day prior to the microdialysis experiment, rats were connected to a dual quartz lined two-channel liquid swivel (Instech, UK) on a counter balance lever arm, which allowed unrestricted movements of the animal. […]
A stabilization period of 2 h was maintained and five basal samples were collected at 20 minutes intervals. […] Dialysates were stored below −70° C. until quantitation of acetylcholine.
Acetylcholine in dialysate was quantified in the calibration range of 0.103 nmol-103.491 nmol using LC-MS/MS method.
All microdialysis data were plotted as percent change from mean dialysate basal concentrations with 100% defined as the average of five pre-dose values. The AUC was calculated by trapezoidal rule using WinNonlin (5.0.1 version, Pharsight Corp. CA). The statistical significance between the mean AUC values of treatment groups with vehicle was calculated using one-way ANOVA followed by Dunnett's test. […]

A short description of series [4]: Object recognition task model. The series is classed as in vivo, Male Wistar rats. The conditions noted are these: 0.1 mg/kg, p.o. The procedure:
The cognition enhancing properties of compounds of this invention were estimated by using this model.
Male Wistar rats (230-280 grams) were used as experimental animals. Four animals were housed in each cage. Animals were kept on 20% food deprivation before one day and given water ad libitum throughout the experiment and maintained on a 12 hours light/dark cycle. Also the rats were habituated to individual arenas for 1 hour in the absence of any objects.
One group of 12 rats received vehicle (1 mL/Kg) orally and another set of animals received compound of the formula (I) either orally or i.p., before one hour of the familiar (T1) and choice trial (T2).
The experiment was carried out in a 50×50×50 cm open field made up of acrylic. In the familiarization phase, (T1), the rats were placed individually in the open field for 3 minutes, in which two identical objects (plastic bottles, 12.5 cm height×5.5 cm diameter) covered in yellow masking tape alone (a1 and a2) were positioned in two adjacent corners, 10 cms from the walls. After 24 hours of the (T1) trial for long-term memory test, the same rats were placed in the same arena as they were placed in T1 trial. Choice phase (T2) rats were allowed to explore the open field for 3 minutes in presence of one familiar object (a3) and one novel object (b) (Amber color glass bottle, 12 cm high and 5 cm in diameter). Familiar objects presented similar textures, colors and sizes. During the T1 and T2 trial, explorations of each object (defined as sniffing, licking, chewing or having moving vibrissae whilst directing the nose towards the object at a distance of less than 1 cm) were recorded separately by stopwatch. Sitting on an object was not regarded as exploratory activity, however, it was rarely observed.
T1 is the total time spent exploring the familiar objects (a1+a2).
T2 is the total time spent exploring the familiar object and novel object (a3+b).
The object recognition test was performed as described by Behaviour Brain Research, 31 (1988), 47-59.

Turning to `CC(C)(O)CN1CCC(F)(CNC(=O)c2cc(Cl)c(N)c3ccoc23)CC1` [Example 50, 4-Amino-5-chloro-N-{[4-fluoro-1-(2-hydroxy-2-methylpropyl)-4-piperidinyl]methyl}benzofuran-7-carboxamide L(+)-tartarate], in series [1] (1 mg/kg, intravenous (bolus)), the AUC(0-t) was found to be 182 ± 37 ng·h/mL and the half-life is 1.2 h. Further, the bioavailability in series [1] (3 mg/kg oral vs 1 mg/kg intravenous) was 63 ± 13%. In addition, in series [1] (3 mg/kg, oral (gavage)), the AUC(0-t) is 346 ± 71 ng·h/mL, the highest level (Cmax) was 230 ± 56 ng/mL, the Tmax amounted to 0.25 h and the half-life is 1.5 h. Moreover, the “increase in mice brain cortical sAPPα levels” value in series [2] is 44%. In addition, in series [3], the “Area under the curve increase, hippocampal acetylcholine” value worked out at 31% and the “increase in acetylcholine levels from ventral hippocampus” value turned out to be 51%. Further, in series [4], the “Exploration time mean ± S.E.M, Familiar object” value worked out at 9.89 ± 1.49 s; the “Exploration time mean ± S.E.M, Novel object” value is 18.58 ± 2.44 s; the Inference result is reported as “Active”.
